Laboratory results taken from US8865913B2, “Crystalline forms and processes for their preparation” (BIAL-Portela & C.A., S.A, priority 2010, dated 2014).

Experiment: Slurry experiments (incl. water activity slurries)
Type: physicochemical
Protocol: Solutions were prepared by addition of a solvent or solvent mixture to the starting material with excess solids present. The mixtures were then agitated in sealed vials at either ambient or a set temperature. For agitation at subambient temperature, chilled solvent was added and the sample was immediately transferred to a freezer. After a given amount of time, the solids were isolated.

**Q.** For Fc1cc(F)c2c(c1)C[C@@H](n1c(CCNCc3ccccc3)c[nH]c1=S)CO2 [compound 2, 1-[(3R)-6,8-difluoro-3,4-dihydro-2H-1-benzopyran-3-yl]-1,3-dihydro-5-[2-[(phenylmethyl)amino]ethyl]-2H-imidazole-2-thione], which “XRPD result of water activity slurry” value (amorphous starting material sample no. 2, Water, 50° C., 3 days, aw 1, sample no. 119) is on record?
**A.** Material C (close to Form A + peaks)

**Q.** And the “XRPD result of water activity slurry” value (amorphous starting material sample no. 3, Acetone/water (25/75), aw 0.95, ambient, 6 days, sample no. 108)?
**A.** Form A^c

**Q.** And the “XRPD result of water activity slurry” value (amorphous starting material sample no. 3, Acetone/water (33/67), aw 0.93, ambient, 6 days, washed w/ acetone/water (33/67), sample no. 107)?
**A.** Form A^c

**Q.** What about the “XRPD result of water activity slurry” value (amorphous starting material sample no. 3, Acetone/water (60/40), aw 0.89, ambient, 6 days, sample no. 106) of the same compound?
**A.** Form A

**Q.** What about the “XRPD result of water activity slurry” value (amorphous starting material sample no. 3, Acetone/water (82/18), aw 0.80, ambient, 6 days, sample no. 105) of the same compound?
**A.** Form A

**Q.** And the “XRPD result of water activity slurry” value (amorphous starting material sample no. 3, Acetone/water (88/12), aw 0.73, ambient, 6 days, sample no. 104)?
**A.** Form A

**Q.** What about the “XRPD result of water activity slurry” value (amorphous starting material sample no. 3, DMF/water (9/91), aw 0.98, RT, 5 days, washed w/ water, sample no. 115) of the same compound?
**A.** Form A^c

**Q.** And the “XRPD result of water activity slurry” value (amorphous starting material sample no. 3, DMSO/water (10/90), aw 0.97, RT, 5 days, washed w/ water, sample no. 116)?
**A.** Form A^c

**Q.** What about the “XRPD result of water activity slurry” value (amorphous starting material sample no. 3, EtOH/water (67/33), aw 0.82, 40° C., 2 days, sample no. 111) of the same compound?
**A.** Form A^c

**Q.** And the “XRPD result of water activity slurry” value (amorphous starting material sample no. 3, Ethanol/water (20/80), aw 0.95, ambient, 6 days, sample no. 113)?
**A.** Form A^c

**Q.** What about the “XRPD result of water activity slurry” value (amorphous starting material sample no. 3, Ethanol/water (47/53), aw 0.90, ambient, 6 days, sample no. 112) of the same compound?
**A.** Form A^c

**Q.** And the “XRPD result of water activity slurry” value (amorphous starting material sample no. 3, Ethanol/water (70/30), aw 0.80, ambient, 6 days, sample no. 110)?
**A.** Form A^c

**Q.** And the “XRPD result of water activity slurry” value (amorphous starting material sample no. 3, Ethanol/water (80/20), aw 0.70, ambient, 6 days, sample no. 109)?
**A.** Form A^c

**Q.** What about the “XRPD result of water activity slurry” value (amorphous starting material sample no. 3, IPA/water (50/50), aw 0.96, 40° C., 2 days, sample no. 114) of the same compound?
**A.** Form A^c

**Q.** And the “XRPD result of water activity slurry” value (amorphous starting material sample no. 3, MeOH/water (50/50), aw 0.75, ambient, 6 days, washed w/ MeOH/water (50/50), sample no. 117)?
**A.** Form A^c

**Q.** And the “XRPD result of water activity slurry” value (amorphous starting material sample no. 3, THF/water (50/50), aw 1.03, ambient, 6 days, washed w/ THF/water (50/50), VO, RT, 1 h, sample no. 118)?
**A.** Form A^c

**Q.** What about the “XRPD result of water activity slurry” value (amorphous starting material sample no. 3, Water, RT, 4 days, surfactant as wetting agent, aw 1, sample no. 121) of the same compound?
**A.** Form A
